One assay addresses T1, G2019S LRRK2 (Homo sapiens, UniProt Q5S007, G2019S).
T1 construct: expressed in transfected cells; host or cells: HEK293 (ATCC CRL-1573), transient transfection, ubiquitin promoter
Put plainly: LRRK2 degradation assay, G2019S LRRK2-HiBit expressed from plasmid in HEK293 cells. It is filed as cell-based. Particulars: HEK293 cells transfected with HiBit-tagged G2019S LRRK2, 24 hours compound incubation. In a few lines:
(§1)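 HEK293 cells co-transfected with ubiquitin-promoter C-terminal HiBit-tagged wild-type or G2019S LRRK2 plus firefly luciferase, then treated with compound dose-responses for 24 hours at 37° C. HiBit/firefly luciferase ratio (dual Nano-Glo read) normalized to % DMSO median; DC50 and Dmax fitted per plate, 6 replicates over two days.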
In general terms: HiBiT is a short tag that completes a luciferase, so light tracks the accessible tagged protein.

The next assay deals with T2, wildtype LRRK2 (Homo sapiens, UniProt Q5S007).
T2 construct: expressed in transfected cells; host or cells: HEK293 (ATCC CRL-1573), transient transfection, ubiquitin promoter
Put plainly: LRRK2 degradation assay, wildtype LRRK2-HiBit expressed from plasmid in HEK293 cells. The following applies: HEK293 cells transfected with HiBit-tagged wildtype LRRK2, 24 hours compound incubation; for Dmax: read-out: **WT Dmax (%); for DC50: read-out: *WT DC50. It is filed as cell-based. An outline of the steps: as §1

Molecules are shown by their SMILES.

T2 sequence (Q5S007 whole entry): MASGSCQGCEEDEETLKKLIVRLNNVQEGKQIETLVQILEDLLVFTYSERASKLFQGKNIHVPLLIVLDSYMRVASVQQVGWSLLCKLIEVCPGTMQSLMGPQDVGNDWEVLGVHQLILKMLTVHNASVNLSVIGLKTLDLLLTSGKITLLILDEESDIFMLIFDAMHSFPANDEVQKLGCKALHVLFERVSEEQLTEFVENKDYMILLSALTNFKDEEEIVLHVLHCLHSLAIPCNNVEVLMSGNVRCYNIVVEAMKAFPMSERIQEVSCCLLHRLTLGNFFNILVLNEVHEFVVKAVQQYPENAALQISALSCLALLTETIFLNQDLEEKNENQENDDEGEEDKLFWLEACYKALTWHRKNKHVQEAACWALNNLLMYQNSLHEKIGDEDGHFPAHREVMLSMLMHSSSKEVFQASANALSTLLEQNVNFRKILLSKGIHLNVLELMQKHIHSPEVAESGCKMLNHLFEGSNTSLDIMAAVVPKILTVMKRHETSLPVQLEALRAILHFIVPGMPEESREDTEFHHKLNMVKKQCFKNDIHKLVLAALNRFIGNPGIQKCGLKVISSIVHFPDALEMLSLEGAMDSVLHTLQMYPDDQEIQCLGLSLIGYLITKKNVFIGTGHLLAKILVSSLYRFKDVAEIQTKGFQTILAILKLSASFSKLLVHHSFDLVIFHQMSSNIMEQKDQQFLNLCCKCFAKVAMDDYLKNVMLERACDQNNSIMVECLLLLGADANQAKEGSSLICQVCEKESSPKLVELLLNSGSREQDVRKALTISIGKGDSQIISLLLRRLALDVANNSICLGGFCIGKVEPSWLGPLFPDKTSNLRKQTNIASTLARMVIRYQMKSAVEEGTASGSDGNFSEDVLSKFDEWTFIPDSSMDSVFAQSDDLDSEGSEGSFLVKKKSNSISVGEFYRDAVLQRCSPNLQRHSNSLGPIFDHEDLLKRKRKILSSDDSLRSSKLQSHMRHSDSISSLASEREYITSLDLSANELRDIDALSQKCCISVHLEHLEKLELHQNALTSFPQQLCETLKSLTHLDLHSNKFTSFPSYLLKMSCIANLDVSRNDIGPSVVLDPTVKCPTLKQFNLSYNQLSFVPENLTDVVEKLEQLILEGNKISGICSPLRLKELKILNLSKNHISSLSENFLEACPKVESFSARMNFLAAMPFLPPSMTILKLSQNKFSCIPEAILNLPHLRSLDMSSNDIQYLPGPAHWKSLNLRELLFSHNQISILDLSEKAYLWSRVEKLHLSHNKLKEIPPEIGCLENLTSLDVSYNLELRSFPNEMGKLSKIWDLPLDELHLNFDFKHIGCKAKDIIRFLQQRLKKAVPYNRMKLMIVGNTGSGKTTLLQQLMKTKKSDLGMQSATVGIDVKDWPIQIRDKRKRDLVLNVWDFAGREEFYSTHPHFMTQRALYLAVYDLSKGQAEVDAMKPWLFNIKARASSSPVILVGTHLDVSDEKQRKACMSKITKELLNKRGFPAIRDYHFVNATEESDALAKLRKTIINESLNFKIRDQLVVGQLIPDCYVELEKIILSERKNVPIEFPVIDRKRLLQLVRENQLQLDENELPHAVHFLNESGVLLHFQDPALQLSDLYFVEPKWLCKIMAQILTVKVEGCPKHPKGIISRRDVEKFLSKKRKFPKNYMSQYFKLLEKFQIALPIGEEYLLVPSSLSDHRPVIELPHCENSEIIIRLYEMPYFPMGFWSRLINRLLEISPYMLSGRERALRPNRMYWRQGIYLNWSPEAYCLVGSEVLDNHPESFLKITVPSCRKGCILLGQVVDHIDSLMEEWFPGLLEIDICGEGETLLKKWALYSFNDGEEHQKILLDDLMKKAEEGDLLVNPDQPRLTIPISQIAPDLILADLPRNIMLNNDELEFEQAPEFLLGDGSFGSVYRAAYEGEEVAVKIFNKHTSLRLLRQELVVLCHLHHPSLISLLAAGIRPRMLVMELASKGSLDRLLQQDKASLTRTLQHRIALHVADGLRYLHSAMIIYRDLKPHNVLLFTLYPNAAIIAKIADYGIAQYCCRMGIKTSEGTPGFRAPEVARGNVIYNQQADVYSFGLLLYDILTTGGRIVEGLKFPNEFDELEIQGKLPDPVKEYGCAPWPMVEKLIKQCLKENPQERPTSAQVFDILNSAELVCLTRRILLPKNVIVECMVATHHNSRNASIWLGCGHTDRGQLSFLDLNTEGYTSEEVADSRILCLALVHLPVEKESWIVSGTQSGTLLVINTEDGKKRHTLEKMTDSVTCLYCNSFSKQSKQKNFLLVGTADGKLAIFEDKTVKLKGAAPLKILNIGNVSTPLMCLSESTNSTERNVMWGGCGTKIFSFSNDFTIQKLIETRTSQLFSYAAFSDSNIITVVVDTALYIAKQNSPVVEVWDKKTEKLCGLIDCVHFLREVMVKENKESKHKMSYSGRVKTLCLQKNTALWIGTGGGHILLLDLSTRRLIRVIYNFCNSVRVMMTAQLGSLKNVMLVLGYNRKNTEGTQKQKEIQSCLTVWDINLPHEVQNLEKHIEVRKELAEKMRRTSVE
T1 sequence (Q5S007 whole entry G2019S): as the sequence (Q5S007 whole entry) above, with G2019S counted along it

In general, DC50 refers to the concentration at which degradation of the target reaches its halfway point. What is called Dmax is the largest share of the target that was removed. At G2019S LRRK2, `CC(C)Oc1ccc2[nH]nc(-c3cc(N4CCN(CCC5CCN(CC6CCN(c7ccc8c(c7)C(=O)N(C7CCC(=O)NC7=O)C8=O)CC6)CC5)CC4)ncn3)c2c1` (stereo not drawn) [compound 41, 2-(2,6-dioxopiperidin-3-yl)-5-(4-((4-(2-(4-(6-(5-isopropoxy-1H-indazol-3-yl)pyrimidin-4-yl)piperazin-1-yl)ethyl)piperidin-1-yl)methyl)piperidin-1-yl)isoindoline-1,3-dione] gave a DC50 of 10 to 50 nM and a Dmax of 50 to 70%. In addition, on wildtype LRRK2, the Dmax was in the range of 50 to 70% and the DC50 fell in the range of 10 to 50 nM.

On G2019S LRRK2, `CC(C)Oc1ccc2[nH]nc(-c3cc(N4CCO[C@H](CN5CCN(CC6CCN(c7ccc8c(c7)C(=O)N(C7CCC(=O)NC7=O)C8=O)CC6)CC5)C4)ncn3)c2c1` (stereo partly drawn) [compound 48, 2-(2,6-dioxopiperidin-3-yl)-5-(4-((4-(((R)-4-(6-(5-isopropoxy-1H-indazol-3-yl)pyrimidin-4-yl)morpholin-2-yl)methyl)piperazin-1-yl)methyl)piperidin-1-yl)isoindoline-1,3-dione] came in with a DC50 below 10 nM and a Dmax of 50 to 70%. At wildtype LRRK2, the Dmax was 50 to 70% and the DC50 was below 10 nM.

Turning to `C[C@H]1CN(c2cc(-c3n[nH]c4ccc(OC5(C)CC5)cc34)ncn2)CCN1CCOCCOc1ccc2c(c1)C(=O)N(C1CCC(=O)NC1=O)C2=O` (stereo partly drawn) [compound 2, 2-(2,6-dioxopiperidin-3-yl)-5-(2-{2-[(2S)-2-methyl-4-{6-[5-(1-methylcyclopropoxy)-1H-indazol-3-yl]pyrimidin-4-yl}piperazin-1-yl]ethoxy}ethoxy)-2,3-dihydro-1H-isoindole-1,3-dione], at G2019S LRRK2, the DC50 was below 10 nM and the Dmax is below 50%. Besides, on wildtype LRRK2, the greatest degradation seen (Dmax) lay in the range of 50 to 70% and the 50% degradation concentration (DC50) is below 10 nM.

On G2019S LRRK2, `CC(C)Oc1ccc2[nH]nc(-c3cc(N4CCO[C@H](CCN5CCN(CC6CCN(c7ccc8c(c7)C(=O)N(C7CCC(=O)NC7=O)C8=O)CC6)CC5)C4)ncn3)c2c1` (stereo partly drawn) [compound 50, 2-(2,6-dioxopiperidin-3-yl)-5-(4-((4-(2-((R)-4-(6-(5-isopropoxy-1H-indazol-3-yl)pyrimidin-4-yl)morpholin-2-yl)ethyl)piperazin-1-yl)methyl)piperidin-1-yl)isoindoline-1,3-dione] had a DC50 below 10 nM and a Dmax of at least 70%. In addition, on wildtype LRRK2, the Dmax was at least 70% and the DC50 is below 10 nM.

As to `C[C@H]1CN(c2cc(-c3n[nH]c4ccc(OC5(C)CC5)cc34)ncn2)CCN1CCOC1CCN(CC2CCN(c3ccc4c(c3)C(=O)N(C3CCC(=O)NC3=O)C4=O)CC2)CC1` (stereo partly drawn) [compound 33, 2-(2,6-dioxopiperidin-3-yl)-5-{4-[(4-{2-[(2S)-2-methyl-4-{6-[5-(1-methylcyclopropoxy)-1H-indazol-3-yl]pyrimidin-4-yl}piperazin-1-yl]ethoxy}piperidin-1-yl)methyl]piperidin-1-yl}-2,3-dihydro-1H-isoindole-1,3-dione], at G2019S LRRK2, the DC50 is below 10 nM and the Dmax was at least 70%. On wildtype LRRK2, the Dmax is at least 70% and the DC50 was in the range of 10 to 50 nM.

At G2019S LRRK2, `CC(C)Oc1ccc2[nH]nc(-c3cc(N4CCN(CCOCCN5CCN(c6ccc7c(c6)C(=O)N(C6CCC(=O)NC6=O)C7=O)CC5)[C@@H](C)C4)ncn3)c2c1` (stereo partly drawn) [compound 22, 2-(2,6-dioxo-3-piperidyl)-5-[4-[2-[2-[(2S)-4-[6-(5-isopropoxy-1H-indazol-3-yl)pyrimidin-4-yl]-2-methyl-piperazin-1-yl]ethoxy]ethyl]piperazin-1-yl]isoindoline-1,3-dione] displayed a DC50 of 10 to 50 nM and a Dmax below 50%. On wildtype LRRK2, the Dmax was below 50% and the DC50 was in the range of 10 to 50 nM.

Values taken from US20250114356A1, “INDAZOLE BASED COMPOUNDS AND ASSOCIATED METHODS OF USE” (Arvinas Operations, Inc., priority 2020, published 2025).
